The source of these data is ChEMBL document CHEMBL4706604, “Design, synthesis and biological evaluation of indanone-chalcone hybrids as potent and selective hCES2A inhibitors” (Eur J Med Chem, 2021).

One series concerns the target T1, Cocaine esterase (Homo sapiens, UniProt O00748).
T1 sequence (O00748 whole entry): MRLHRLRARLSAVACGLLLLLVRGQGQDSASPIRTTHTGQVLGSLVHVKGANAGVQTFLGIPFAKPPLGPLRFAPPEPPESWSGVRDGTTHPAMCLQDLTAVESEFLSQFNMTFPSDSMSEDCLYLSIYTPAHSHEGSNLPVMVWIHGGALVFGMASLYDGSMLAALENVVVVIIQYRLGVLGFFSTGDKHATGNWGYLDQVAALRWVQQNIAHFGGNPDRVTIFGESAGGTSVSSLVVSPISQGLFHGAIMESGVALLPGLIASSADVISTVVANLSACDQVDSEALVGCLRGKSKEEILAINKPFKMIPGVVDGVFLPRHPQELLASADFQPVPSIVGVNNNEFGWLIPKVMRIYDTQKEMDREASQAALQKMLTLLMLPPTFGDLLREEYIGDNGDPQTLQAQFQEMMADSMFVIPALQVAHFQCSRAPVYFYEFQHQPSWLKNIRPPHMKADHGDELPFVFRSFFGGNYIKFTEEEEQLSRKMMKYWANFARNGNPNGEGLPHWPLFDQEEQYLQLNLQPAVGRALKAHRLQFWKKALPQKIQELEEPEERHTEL
Briefly: Inhibition of hCES2A in human liver microsome assessed as reduction in fluorescein diacetate hydrolysis preincubated for 10 mins followed by substrate addition measured after 20 mins by fluorescence analysis. The format is microsomes.

A further series concerns the target Cholinesterase (Homo sapiens, UniProt P06276). Briefly: Inhibition of BChE in human plasma assessed as reduction in butyrylthiocholineiodide hydrolysis preincubated for 3 mins followed by substrate addition. The format is cell-free.
Series [1] is described as follows: Metabolic stability at phase 2 in human liver microsomes assessed as half life at 10 uM by LC-UV analysis.
Series [2] in a line: Metabolic stability at phase 1 in human liver microsomes assessed as half life at 10 uM by LC-UV analysis.
The target of another series is T2, Liver carboxylesterase 1 (Homo sapiens, UniProt P23141).
T2 sequence (P23141 whole entry): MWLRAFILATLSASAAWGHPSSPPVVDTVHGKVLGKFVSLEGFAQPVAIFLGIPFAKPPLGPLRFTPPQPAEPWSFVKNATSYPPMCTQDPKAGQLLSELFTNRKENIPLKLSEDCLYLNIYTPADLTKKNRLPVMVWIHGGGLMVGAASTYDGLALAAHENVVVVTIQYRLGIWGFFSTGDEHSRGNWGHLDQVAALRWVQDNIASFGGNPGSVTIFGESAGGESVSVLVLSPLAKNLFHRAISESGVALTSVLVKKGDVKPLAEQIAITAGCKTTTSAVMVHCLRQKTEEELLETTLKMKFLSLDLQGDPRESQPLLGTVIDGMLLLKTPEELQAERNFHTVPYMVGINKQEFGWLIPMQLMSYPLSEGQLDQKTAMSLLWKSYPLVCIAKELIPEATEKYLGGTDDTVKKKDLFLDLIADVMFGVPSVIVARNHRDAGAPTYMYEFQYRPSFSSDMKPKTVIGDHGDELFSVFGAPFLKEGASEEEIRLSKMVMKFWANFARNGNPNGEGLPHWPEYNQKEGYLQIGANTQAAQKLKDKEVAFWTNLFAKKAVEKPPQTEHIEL
As to the kind of experiment: Inhibition of hCES1A in human liver microsome assessed as reduction in D-Iuciferin methyl ester hydrolysis preincubated for 10 mins followed by substrate addition measured after 10 mins by luminescence analysis. It is filed as microsomes.

Sequence of Cholinesterase (P06276 whole entry): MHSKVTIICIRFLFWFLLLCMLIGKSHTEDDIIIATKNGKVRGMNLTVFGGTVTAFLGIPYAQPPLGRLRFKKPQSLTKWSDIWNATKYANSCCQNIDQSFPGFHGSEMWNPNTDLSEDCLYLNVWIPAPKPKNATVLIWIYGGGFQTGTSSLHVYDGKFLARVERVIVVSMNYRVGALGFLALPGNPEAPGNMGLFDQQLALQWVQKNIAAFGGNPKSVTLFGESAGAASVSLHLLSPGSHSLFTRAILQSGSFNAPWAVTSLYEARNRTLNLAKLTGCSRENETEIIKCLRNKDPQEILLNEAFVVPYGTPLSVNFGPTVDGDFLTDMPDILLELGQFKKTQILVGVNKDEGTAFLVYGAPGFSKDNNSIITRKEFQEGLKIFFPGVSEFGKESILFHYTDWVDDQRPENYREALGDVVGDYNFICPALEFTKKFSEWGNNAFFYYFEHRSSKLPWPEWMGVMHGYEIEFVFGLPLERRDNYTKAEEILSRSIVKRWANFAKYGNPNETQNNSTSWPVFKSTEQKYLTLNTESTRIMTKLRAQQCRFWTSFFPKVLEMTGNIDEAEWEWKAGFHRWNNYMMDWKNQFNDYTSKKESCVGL

As to `COc1ccc(/C=C2\Cc3ccc(O)cc3C2=O)c(OC)c1OC`, on Cocaine esterase, the IC50 came out at 5230 nM.

For `CCCOc1ccc2c(c1)C(=O)/C(=C/c1ccc(O)c(OC)c1)C2`, the IC50 on Cocaine esterase turned out to be 1620 nM.

On to `O=C1/C(=C/c2ccc(O)c(O)c2)Cc2ccc(O)cc21`, for which, on Cocaine esterase, the 50% inhibitory concentration (IC50) came to 2810 nM.

Turning to `COc1ccc(/C=C2\Cc3ccc(O)cc3C2=O)cc1`, the IC50 at Cocaine esterase worked out at 56000 nM.

With `COc1cc(/C=C2\Cc3ccc(OC(C)C)cc3C2=O)ccc1O`, the IC50 on Cocaine esterase was 2860 nM.

In the case of `COc1cc(/C=C2\Cc3ccccc3C2=O)ccc1O`, at Cocaine esterase, the 50% inhibitory concentration (IC50) is 1310 nM.

For `COc1ccc2c(c1)C(=O)/C(=C/c1ccc(O)c(OC)c1)C2`, the IC50 at Cocaine esterase was 2910 nM.

In the case of `O=C1/C(=C/c2ccc(O)cc2)Cc2ccc(O)cc21`, the IC50 on Cocaine esterase is 5940 nM.

Regarding `COc1cc(/C=C2\Cc3ccc(N4CCCC4)cc3C2=O)ccc1O`, the IC50 on Cholinesterase and at Liver carboxylesterase 1 was more than 100000 nM each time. Moreover, the half-life at 10 µM in series [1] came to 1.72 h; in series [2], 1.6 h.

As for `COc1cc(/C=C2\Cc3ccc(O)cc3C2=O)ccc1O`, on Cocaine esterase, the IC50 was 1090 nM.

Turning to `COc1cc(/C=C2\Cc3ccc(N)cc3C2=O)ccc1O`, at Cocaine esterase, the concentration for half-maximal inhibition (IC50) worked out at 1480 nM.
